The values that follow come from patent US20060264463A1, “Chemical compounds” (priority 2003, published 2006).

This assay deals with T1, human H1 receptor (Homo sapiens, UniProt P35367).
T1 construct: purchased Euroscreen SA, Brussels, Belgium ES-390-M; host or cells: CHO-K1
T1 sequence (P35367 whole entry): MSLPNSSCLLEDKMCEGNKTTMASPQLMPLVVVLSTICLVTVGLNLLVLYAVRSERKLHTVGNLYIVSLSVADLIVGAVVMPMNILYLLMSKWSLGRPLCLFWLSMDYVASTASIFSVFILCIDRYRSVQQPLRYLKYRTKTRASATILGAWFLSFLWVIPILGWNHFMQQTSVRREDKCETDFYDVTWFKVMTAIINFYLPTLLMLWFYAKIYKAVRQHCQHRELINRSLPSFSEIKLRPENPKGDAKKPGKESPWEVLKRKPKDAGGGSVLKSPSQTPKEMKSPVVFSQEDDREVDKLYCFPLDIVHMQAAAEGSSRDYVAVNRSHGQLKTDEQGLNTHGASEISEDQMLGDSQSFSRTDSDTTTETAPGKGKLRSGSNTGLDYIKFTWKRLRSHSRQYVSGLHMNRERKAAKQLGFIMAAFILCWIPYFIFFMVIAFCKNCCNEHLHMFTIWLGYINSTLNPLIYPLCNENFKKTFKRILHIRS
Description: Histamine H1 receptor binding, competition displacement of [3H]-pyrilamine. The settings on record: displacement of 1 nM [3H]-pyrilamine; 2 μg membranes from recombinant CHO-K1 cells expressing the human H1 receptor; 1 hour at room temperature; read-out: H1 pKi (converted).
With `Cc1cc(Cl)ccc1OC1CCN(CC2CCN(c3ccccc3C(=O)O)CC2)CC1` [Example 49, 2-(4-{[4-(4-chloro-2-methylphenoxy)piperidin-1-yl]methyl}piperidin-1-yl)benzoic acid], the Ki was 0.0501 µM.
To `Cc1ccc(C(=O)O)c(N2CCC(CN3CCC(Oc4ccc(Cl)c(Cl)c4)CC3)CC2)n1` [Example 47, 2-(4-{[4-(3,4-dichlorophenoxy)piperidin-1-yl]methyl}piperidin-1-yl)-6-methylnicotinic acid] belongs 0.00501 µM.
The result for `CCOC(=O)c1cccc(N2CCC(CN3CCC(Cc4ccc(Cl)c(Cl)c4)CC3)CC2)c1` [Example 32, Ethyl 3-(4-{[4-(3,4-dichlorobenzyl)piperidin-1-yl]methyl}piperidin-1-yl)benzoate] reads 0.01 µM; that for `Cc1cc(OC2CCN(CC3CCN(c4c(F)cccc4C(=O)O)CC3)CC2)ccc1Cl` [Example 68, 2-(4-{[4-(4-chloro-3-methylphenoxy)piperidin-1-yl]methyl}piperidin-1-yl)-3-fluorobenzoic acid], 0.0158 µM.
The result for `O=C(O)c1cccc(N2CCC(CN3CCC(Cc4ccc(Cl)c(Cl)c4)CC3)CC2)c1` [Example 106, 3-(4-{[4-(3,4-dichlorobenzyl)piperidin-1-yl]methyl}piperidin-1-yl)benzoic acid] reads 0.02 µM; that for `N#Cc1ccc(OC2CCN(CC3CCN(c4cc(Cl)ccc4C(=O)O)CC3)CC2)cc1Cl` [Example 36, 4-chloro-2-(4-{[4-(3-chloro-4-cyanophenoxy)piperidin-1-yl]methyl}piperidin-1-yl)benzoic acid], 0.01 µM.
Turning to `O=C(O)c1ccccc1N1CCC(O)(CN2CCC(Oc3ccc(Cl)c(Cl)c3)CC2)CC1` [Example 63, 2-(4-{[4-(3,4-dichlorophenoxy)piperidin-1-yl]methyl}-4-hydroxypiperidin-1-yl)benzoic acid], the Ki is 0.0501 µM.
In the case of `Cc1cc(Cl)ccc1OC1CCN(CC2CCN(c3ccc([N+](=O)[O-])cc3C(=O)O)CC2)CC1` [Example 59, 2-(4-{[4-(4-chloro-2-methylphenoxy)piperidin-1-yl]methyl}piperidin-1-yl)-5-nitrobenzoic acid], the Ki is 0.00158 µM.
To `COC(=O)c1ccccc1N1CCC(CN2CCC(Oc3ccc(Cl)c(Cl)c3)CC2)CC1` [Example 1, methyl 2-[4-[[4-(3,4-dichlorophenoxy)-1-piperidinyl]methyl]-1-piperidinyl)-benzoate] belongs 0.00251 µM; to `N#Cc1ccc(OC2CCN(CC3CCN(c4c(Cl)cccc4C(=O)O)CC3)CC2)cc1Cl` [Example 48, 3-chloro-2-(4-{[4-(3-chloro-4-cyanophenoxy)piperidin-1-yl]methyl}piperidin-1-yl)benzoic acid], 0.0794 µM; to `Cc1c(OC2CCN(CC3CCN(c4cccc(C(=O)O)c4)CC3)CC2)ccc(Cl)c1Cl` [Example 96, 3-(4-{[4-(3,4-dichloro-2-methylphenoxy)piperidin-1-yl]methyl}piperidin-1-yl)benzoic acid], 0.02 µM.
To `Cc1cc(OC2CCN(CC3CCN(c4cc(Cl)ccc4C(=O)O)CC3)CC2)ccc1Cl` [Example 74, 4-chloro-2-(4-{[4-(4-chloro-3-methylphenoxy)piperidin-1-yl]methyl}piperidin-1-yl)benzoic acid] belongs 0.00251 µM; to `COc1cccc(C(=O)O)c1N1CCC(CN2CCC(Oc3ccc(C#N)c(Cl)c3)CC2)CC1` [Example 55, 2-(4-{[4-(3-chloro-4-cyanophenoxy)piperidin-1-yl]methyl}piperidin-1-yl)-3-methoxybenzoic acid], 0.316 µM; to `Cc1cc(C(=O)O)cc(N2CCC(CN3CCC(Oc4ccc(Cl)c(Cl)c4)CC3)CC2)c1` [Example 99, 3-(4-{[4-(3,4-dichlorophenoxy)piperidin-1-yl]methyl}piperidin-1-yl)-5-methylbenzoic acid], 0.00794 µM.
As to `N#Cc1ccc(OC2CCN(CC3CCN(c4ccccc4C(=O)O)CC3)CC2)cc1Cl` [Example 34, 2-(4-{[4-(3-chloro-4-cyanophenoxy)piperidin-1-yl]methyl}piperidin-1-yl)benzoic acid], the Ki was 0.631 µM.
